This is an account of results in patent US20240317755A1, “HETEROCYCLIC COMPOUND, AND INTERMEDIATE THEREOF, PREPARATION METHOD THEREFOR AND USE THEREOF” (WUHAN LL SCIENCE AND TECHNOLOGY DEVELOPMENT CO., LTD., priority 2021, published 2024).

The nature of this series: Tissue distribution in CD-1 mice after single intragastric administration. As to conditions: mouse, oral, male CD-1 mice, 10 mg/kg intragastric. Type of series: in vivo. As for the experimental part:
Mice: CD-1 mice, SPF grade, 9, male, weighting 18 to 22 g (source: SPF (Beijing) Biotechnology Co., Ltd., certificate number: 110324200103036532).
Dispensing: After accurately weighing compound L015, 20% solutol of the required volume was added thereto first, sonicated for 20 min and stirred for 1.5 hours until no visible particles were visible to the naked eye, and the middle layer of the drug solution was taken for drug administration. 2 parts of the top, middle, and bottom layers of the suspension were taken, and 2 parts of the middle layer of the clarified solution were taken, and 100 μL of each part was accurately aspirated into a 1.5 mL EP tube. Samples were taken before administration, and after sampling, the samples were stored in a −80° C. refrigerator and sent together with the plasma samples for bioanalytical test.
Animals were randomly divided into 3 groups. Compound L015 was administered at 3 different time points, with 3 animals per group, all males. All mice were given a single intragastric administration with an administration volume of 10 mL/kg. The specific grouping and administration information is as follows:
After the administration was completed, the animals in each group were anesthetized by intraperitoneal injection of 1% pentobarbital sodium (the administration volume was 0.06 mL/10 g) 5 minutes before their respective time points, and about 0.3 mL of blood was collected in an anticoagulant EP tube (containing 4 μL of EDTA-K2, 375 mg/mL), which was gently inverted for 3 times and stored in an ice box (no more than 30 minutes), centrifuged at 4° C. for 10 minutes with 3500×g. The supernatant was transferred to a labeled EP tube for bioanalytical test. If it could not be analyzed the same day, it was stored at −80° C. until further testing (be careful not to perform multiple freezing/thawing processes).
After the blood was taken, the abdominal cavity was quickly opened, and the abdominal aorta and vein of the […] were cut. After the blood was drained, the heart, liver, spleen, lung, kidney, and brain of the rat were taken, respectively. After the tissue was taken, the tissue was immediately rinsed with normal saline to remove any residual blood on the surface, blotted dry with filter paper, and the connective tissue was removed and weighed. The homogenization tube was placed in an ice water bath, and the tissue sample homogenate was thoroughly homogenized with a high-speed homogenizer and sent for bioanalytical test. If it could not be analyzed the same day, it was stored at −80° C. until further testing (be careful not to perform multiple thawing/freezing processes).
1.5 Sample analysis method 1.5.1 Experimental instruments: • High performance liquid chromatography pump (pump): Exion LC AD Pump, Sciex Company • Auto sampler: Exion LC AD Autosampler, Sciex Company • Column oven: Exion LC AD Column Oven, Sciex Company • Mass spectrometer: AB Sciex Qtrap 4500 • High-speed refrigerated centrifuge (centrifuge): Thermo Fisher, ST16R, GG1206085-093 • Analytical balance (electronic balance): Mettler Toledo, MS-105D, GG1206363 • Micro vortex (vortex): Shanghai Huxi Analysis Instrument Factory, WH-2, GG1206487 1.5.2 Experimental materials: mouse plasma and tissue
Sample pretreatment process: 3 μL of working solution was taken, and 57 μL of blank matrix was added into a 1.5 mL centrifuge tube, and then 240 μL of acetonitrile solution containing 200 ng/mL tolbutamide and labetalol mixed with 0.1% formic acid was added to precipitate protein. The mixture was vortexed and mixed for 1 minute, and then centrifuged in a 4° C. centrifuge at 13000 rpm for 15 minutes. 100 μL of supernatant was taken and added to another 96 deep well plate, and 100 μL of methanol:water (1:3, v:v) solution containing 0.1% FA was added. The mixture was mixed with shaking for 1 min, and centrifuged at 3500 rpm for 5 min in a 96-well plate centrifuge and the sample was injected directly. […]

SMILES strings stand for the structures. Where two headings read alike, the source gives them in different places.

For `O=C(c1ccc(F)cc1C(F)(F)F)c1cnc2n1CCN(c1cn[nH]c(=O)c1Cl)C2` [Compound 1-6, 4-chloro-5-(3-(4-fluoro-2-(trifluoromethyl)benzoyl)-5,6-dihydroimidazo[1,2-a]pyrazin-7(8H)-yl)pyridazin-3(2H)-one], the concentration at 0.167 h (brain, 20% solutol, read-out: concentration in brain) amounted to 706 ng/g; the concentration at 0.167 h (kidney, 20% solutol, read-out: concentration in kidney) is 1470 ng/g; the concentration at 0.167 h (liver, 20% solutol, read-out: concentration in liver) was found to be 3260 ng/g. This compound came in with a concentration at 1 h (brain, 20% solutol, 1 hour) of 161 ng/g. This compound also registered a concentration at 10 h (brain, 20% solutol, 10 hours) of 25.9 ng/g. Further, the Kp at 0.167 h by setting is: (brain, read-out: brain, times of the plasma concentration) 0.05; (kidney, read-out: kidney, times of the plasma concentration) 2.5; (liver, read-out: liver, times of the plasma concentration) 5.55. The Kp at 1 h (brain, 1 hour, read-out: brain, times of the plasma concentration) was found to be 0.19; the Kp at 1 h (kidney, 1 hour, read-out: kidney, times of the plasma concentration) was found to be 2.51; the Kp at 1 h (liver, 1 hour, read-out: liver, times of the plasma concentration) was found to be 4.53. Also, the Kp at 10 h is, setting by setting: (brain, 10 hours, read-out: brain, times of the plasma concentration) 0.09; (kidney, 10 hours, read-out: kidney, times of the plasma concentration) 1.5; (liver, 10 hours, read-out: liver, times of the plasma concentration) 5.05.
